The record followed here is PMC5838106, “Cathelicidin promotes inflammation by enabling binding of self-RNA to cell surface scavenger receptors” (Scientific Reports, 2018).

Where no end group is shown, it is not given here.

The subject of assay [1] is NHEKs. Kind of assay: Cytokine mRNA expression in NHEKs stimulated with cathelicidin peptide and dsRNA (quantitative real-time PCR). It counts as cell-based, human. The conditions noted are these: for capacity to enable U1 RNA to amplify IFN-β1 or IL-6 expression: NHEKs, peptide 2.5 μM 10 minutes, then U1 RNA 2.5 μg/mL 6 hours, n = 3. As for the experimental part: Figure 1 Inflammatory activity of cathelicidin can be dissociated from antimicrobial function (a) Transcriptomic analysis by RNASeq of primary cultures of normal human epidermal keratinocytes (NHEKs) treated with LL37 (2.5 μM) with or without U1 RNA (2.5 μg/mL) for 24 hours. Shown are gene sets induced > 2 fold over vehicle, and after treatment with LL37, U1 RNA, or the combination of LL37 + U1 RNA. (b) Gene Ontology analysis of gene sets from (a). The number of genes related to each biological process is indicated in parentheses. (c) Amino acid sequence of synthetic cathelicidin peptides used in this study. (d) Antimicrobial assay of cathelicidin peptides against group A streptococcus (GAS). GAS were incubated with various concentrations of each peptide (0–25 μM) for 6 hours, then surviving colonies counted after plating on Todd Hewitt Broth gel. (e) IFN-β1 mRNA abundance and (f) IL-6 mRNA abundance in NHEKs after treatment with cathelicidin peptides (2.5 μM) for 10 minutes, then stimulated with U1 RNA (2.5 μg/mL) for a further 6 hours. (n = 3). (g) IFN-β1 mRNA abundance and (h) IL-6 mRNA abundance in […] (PMA)-treated THP1 cells after treatment with cathelicidin peptides (3 μM) for 10 minutes, then stimulated with U1 RNA (12.5 μg/mL) overnight. (n = 3). Data presented are from one representative experiment of at least two independent experiments. Error bars are SEM of three biological replicates. *P < 0.05, **P < 0.01, ***P < 0.001 by two-way ANOVA with Bonferroni’s post-hoc test. See also Fig. S1. […]
RNA was isolated from NHEKs using Purelink RNA isolation columns (ThermoFisher Scientific) according to the manufacturer’s instructions. RNA was quantified using a Nanodrop spectrophotometer (ThermoFisher Scientific), and up to 500 ng of RNA was reverse-transcribed using the iScript cDNA synthesis kit (Bio-Rad, Irvine, CA). Quantitative real-time PCR reactions were run on a CFX96 real-time detection system (Bio-Rad) using gene-specific primers and TaqMan probes (ThermoFisher Scientific). […]

The test system of assay [2] is THP1 cells. Kind of assay: Cytokine expression in PMA-treated THP1 cells stimulated with cathelicidin peptide and U1 RNA. It counts as cell-based, human. The conditions noted are these: PMA-treated THP1, peptide 3 μM 10 minutes, then U1 RNA 12.5 μg/mL overnight; n = 3. As for the experimental part: Figure 1 Inflammatory activity of cathelicidin can be dissociated from antimicrobial function (a) Transcriptomic analysis by RNASeq of primary cultures of normal human epidermal keratinocytes (NHEKs) treated with LL37 (2.5 μM) with or without U1 RNA (2.5 μg/mL) for 24 hours. Shown are gene sets induced > 2 fold over vehicle, and after treatment with LL37, U1 RNA, or the combination of LL37 + U1 RNA. (b) Gene Ontology analysis of gene sets from (a). The number of genes related to each biological process is indicated in parentheses. (c) Amino acid sequence of synthetic cathelicidin peptides used in this study. (d) Antimicrobial assay of cathelicidin peptides against group A streptococcus (GAS). GAS were incubated with various concentrations of each peptide (0–25 μM) for 6 hours, then surviving colonies counted after plating on Todd Hewitt Broth gel. (e) IFN-β1 mRNA abundance and (f) IL-6 mRNA abundance in NHEKs after treatment with cathelicidin peptides (2.5 μM) for 10 minutes, then stimulated with U1 RNA (2.5 μg/mL) for a further 6 hours. (n = 3). (g) IFN-β1 mRNA abundance and (h) IL-6 mRNA abundance in […] (PMA)-treated THP1 cells after treatment with cathelicidin peptides (3 μM) for 10 minutes, then stimulated with U1 RNA (12.5 μg/mL) overnight. (n = 3). Data presented are from one representative experiment of at least two independent experiments. Error bars are SEM of three biological replicates. *P < 0.05, **P < 0.01, ***P < 0.001 by two-way ANOVA with Bonferroni’s post-hoc test. See also Fig. S1.
Primary neonatal human epidermal keratinocytes (NHEKs) was purchased from ThermoFisher Scientific. NHEKs were grown in serum free EpiLife medium supplemented with 0.06 mM CaCl2, EpiLife Defined growth supplements (EDGS) (ThermoFisher Scientific) and antibiotics, and passage 3–5 cells were used for experiment. Cells at 60–80% confluence were starved overnight without EDGS prior to treatment. THP1 was purchased from American Type Culture Collection (ATCC) (Manassas, VA). THP1 was cultured in RPMI-1640 (Sigma) supplemented with 10% Hyclone fetal calf serum (Thermofisher Scientific), and antibiotics, and passage 3–5 cells were used for experiment. Cells at 60–80% confluence were differentiated by Phorbol 12-myristate 13-acetate (PMA, Sigma) for 24 hours and then starved overnight without Hyclone fetal calf serum prior to treatment.
RNA was isolated from NHEKs using Purelink RNA isolation columns (ThermoFisher Scientific) according to the manufacturer’s instructions. RNA was quantified using a Nanodrop spectrophotometer (ThermoFisher Scientific), and up to 500 ng of RNA was reverse-transcribed using the iScript cDNA synthesis kit (Bio-Rad, Irvine, CA). Quantitative real-time PCR reactions were run on a CFX96 real-time detection system (Bio-Rad) using gene-specific primers and TaqMan probes (ThermoFisher Scientific). PCR primers and probes are shown on Table S2.

The target of assay [3] is T1, SR-B1 (Homo sapiens, UniProt Q8WTV0).
T1 construct: endogenous in cells; host or cells: NHEK (primary neonatal human epidermal keratinocytes)
T1 sequence (Q8WTV0 1-509 isoform Q8WTV0-2): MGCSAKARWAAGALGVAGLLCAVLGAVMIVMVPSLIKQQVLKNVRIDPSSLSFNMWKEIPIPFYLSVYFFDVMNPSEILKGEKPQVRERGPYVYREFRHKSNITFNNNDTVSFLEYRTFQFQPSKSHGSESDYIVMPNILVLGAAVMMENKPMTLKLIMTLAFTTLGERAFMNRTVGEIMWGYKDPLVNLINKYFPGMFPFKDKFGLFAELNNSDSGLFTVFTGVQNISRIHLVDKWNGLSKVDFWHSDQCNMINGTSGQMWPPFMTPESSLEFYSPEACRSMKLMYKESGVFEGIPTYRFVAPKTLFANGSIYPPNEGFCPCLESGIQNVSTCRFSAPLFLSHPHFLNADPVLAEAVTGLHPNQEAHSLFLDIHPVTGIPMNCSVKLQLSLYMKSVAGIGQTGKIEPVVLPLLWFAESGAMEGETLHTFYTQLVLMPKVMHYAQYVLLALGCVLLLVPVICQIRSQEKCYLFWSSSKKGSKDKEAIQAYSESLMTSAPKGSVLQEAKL
Kind of assay: Immunofluorescence localisation of U1 RNA with SR-B1. It is filed as cell-based. The conditions noted are these: NHEKs, 4 °C, 10 minutes with U1 RNA and peptide. As for the experimental part: NHEKs were grown on 8-well chamber slides (Thermofisher Scientific). After indicated treatments, cells were fixed in 4% paraformaldehyde (PFA) (Thermofisher Scientific) for 10 minutes and blocked with 3% bovine serum albumin, 0.2 M Glycine (Sigma) with or without 1 mg/mL saponin (Sigma) prior to incubating with primary antibodies followed by appropriate 488- or 568-coupled secondary antibodies, or 488-streptavidin conjugate. Nuclei were counterstained with DAPI. All images were taken with an Olympus BX41 microscope (widefield), Zeiss LSM510 confocal microscope, or Nikon A1R Confocal STORM microscope as indicated.
Figure S3. a) NHEKs cultured at 4 °C for 10 minutes with U1 RNA and cathelicidin peptide. […]
RNA. NHEKs were cultured with various cathelicidin peptides (2.5 µM) for 10 minutes, then with biotinylated U1 RNA (2.5 µg/mL) at 4 °C for 1 hour before physical proximity of SR-A6 and U1 RNA was determined using a fluorescence-based PLA that produces a red fluorescent signal. […] PMA-treated THP1 were cultured with various cathelicidin peptides (3 µM) for 10 minutes, then with biotinylated U1 RNA (2.5 µg/mL) at 4 °C for 1 hour before physical proximity of U1 RNA and scavenger receptors was determined using a fluorescence-based PLA, each count is PLA complexes observed in 5 visual fields. f) NHEKs cultured at 37 °C that were stained immediately after or after 5 […]

For the substance LL37, the “capacity to enable U1 RNA to amplify IFN-β1 or IL-6 expression” value in assay [1] and in assay [2] was “large responses” in each case. The “U1 RNA localization with SR-B1” value in assay [3] is recorded as “enabled U1 RNA to localize with SR-B1”.

“LLGDFFRKSKEKIGKEFKRIVQRIKDFLRNLVPR [LL34]”: the “capacity to enable U1 RNA to amplify IFN-β1 or IL-6 expression” value in assay [1] and in assay [2] was “large responses” in each case. Further, the “capacity to induce IL-6 and IFN-β mRNA” value in assay [1] (peptide with U1 RNA, keratinocytes) is listed as “ca. 3000 fold”. The “U1 RNA localization with SR-B1” value in assay [3] is given as “enabled U1 RNA to localize with SR-B1”.
